Measurements from patent publication US7648964B2, “Use of lacritin in promoting ocular cell survival” (University of Virginia Patent Foundation, priority 2004, dated 2010).
“Also recorded” adds a separate entry of the source.

Tests used:
[1] = system: PKCα; experiment: Phospho-PKCα blot of HSG cell lysates; type: cell-based, human; conditions: for effect on lacritin-dependent PKCα dephosphorylation: pertussis toxin 100 ng/ml, Go 6976, U73122, U73343 1 μM
Method: (§1) For phosphotyrosine blotting and mitogenesis assays, cells in serum-containing media were seeded overnight in 24-well plates at a density of 0.5×10^5 cells/mm^2 corresponding to 20-30% confluency after cell attachment, incubated in serum-free media without supplements for 24 h (phosphotyrosine) or washed with serum-free media without supplements three times (mitogenesis) and incubated with lacritin (1-1000 nM), or positive controls EGF (1.6 nM) and 10% fetal bovine serum, or negative controls bovine serum albumin or no additive in serum-free media without supplements for the indicated times (phosphotyrosine) or 30 h (mitogenesis). For phosphotyrosine assays, cells were extracted in 1% NP40 containing sodium vanadate (2 mg/ml), DTT (5 mg/ml), protease inhibitors, 50 mM HEPES, 100 mM NaCl, and 2 mM EDTA; then separated by 10% SDS PAGE, transferred and blotted. The following antibodies (Cell Signaling Technology, Beverly Mass.) were tested: antiphosphotyrosine antibody (P-Tyr-100), anti-phospho-PKC αβII, anti-PKCα, anti-phospho-PKCδ, anti-phospho-PKC (pan), anti-p44/42 MAPK, anti-phospho-Raf, anti-phospho-SAPK/JNK, anti-phospho-p38 Map kinase, anti-phospho-Raf, anti-phospho-Akt, anti-phospho-CaMKII, anti-phospho-MARCKS, or anti-tubulin (loading control). After washing, bound antibodies were detected with peroxidase-labeled secondary antibody and ECL. With the exception of at least nine proteins in the P-Tyr-100 blot (FIG. 1), none of the effectors tested above appeared to be phospho-activated during lacritin signaling (not shown). For mitogenesis (Hussaini et al., '00), [^3H]-thymidine (2 mCi/ml) was added for the next 6 h. Incorporation was stopped with ice-cold phosphate buffered saline and followed by addition of cold and then room temperature trichloracetic acid (10%) for 10 min each, washing of cells with phosphate buffered saline, solubilization with 1 N sodium hydroxide, neutralization with 1 N hydrochloric acid, addition of scintillation fluid and then quantitation in a scintillation counter. To deplete PKCα in HSG cells, a pool of four PKCα-specific siRNAs (100 nM) were transfected via LipofectAMINE 2000 in Opti-MEMI Reduced Serum Medium (Invitrogen, Grand Island N.Y.) without serum and antibiotics according to manufacturer's instructions. Each of the four siRNAs was also individually transfected. In negative controls, cells were transfected with a pool of four lamin-specific siRNAs (Upstate LLC, Charlottesville Va.; Dharmacon Inc, Lafayette Colo.). Seventy-two hours post-transfection, mitogenesis was assessed by co-addition of 10 […] lacritin and [^3H]-thymidine (2 mCi/ml) (Amersham, Piscataway N.J.) for 24 hrs. PKCα depletion was confirmed by Western blotting.
We imaged PKCα in cells 15 min after treatment (FIG. 8). Nonmitogenic construct/fragment C-25 (10 nM) had no effect, leaving PKCa diffusely distributed throughout the cytoplasm. […] The phosphorylation state of PKCα influences its translocation site. Hyperphosphorylated PKCα becomes associated with the plasma membrane whereas hypophosphorylated or dephosphorylated PKCα is known to translocate to the perinuclear Golgi region. To determine if the latter is true and if so over what time course, we treated cells with lacritin, N-24 and C-25, and then blotted cell lysates for phospho-PKC ? (FIG. 8B). 10 nM lacritin promotes PKC ? dephosphorylation within 1 min of addition. This form is sustained for at least 15 min, but by 30 min has returned to baseline phosphorylation. Dephosphorylation triggered by increasing molar levels of lacritin or N-24 mirrored the proliferation response with optimal dephosphorylation at 10 nM. Non-mitogenic C-25 had no effect, whereas positive control 4β-phorbol 12-myristate 13-acetate-promoted hyperphosphorylation.

[2] = system: PKCα; experiment: PKCα translocation in HSG cells (immunofluorescence, fractionation); type: cell-based, human; conditions: for effect on lacritin-dependent PKCα translocation: pertussis toxin 100 ng/ml, Go 6976, U73122, U73343, cyclosporine 1 μM, nifedipine 10 μM
Source text: In order to dissect the molecular pathways leading to the cell survival by lacritin, protein kinases and transcriptional factors were studied by Western blotting and immunofluorescence microscopy.
Images were acquired at 2-3 s intervals using LaserSharp2000 software (Bio-Rad) and store on disc for later analysis.

[3] = system: NFATC1; experiment: NFATC1 translocation in HSG cells (immunofluorescence); type: cell-based, human; conditions: cyclosporine 1 μM; nifedipine 10 μM
Source text: In order to dissect the molecular pathways leading to the cell survival by lacritin, protein kinases and transcriptional factors were studied by Western blotting and immunofluorescence microscopy. […] On the other hand, there were increased activities of transcriptional factors such as nuclear factor of activated T-cells (NFAT) and NF-kappaB. In FIG. 4, translocation of PKC alpha and NFAT was detected by immunofluorescence coupled with confocal microscopic imaging. In resting HSG cells (left three images), PKC alpha distributes mainly in cytosol and membrane. Similarly, NFATc1 was also found to localize largely in cytosol. Cellular co-location of PKC alpha and NFATc1 is apparent upon merging the two immunofluorescent images, as the merged cy3 and FITC labels produce distinctive yellow color.
Images were acquired at 2-3 s intervals using LaserSharp2000 software (Bio-Rad) and store on disc for later analysis. For translocation assays, HSG cells […] phorbol 12-myristate 13-acetate, […], then washed with phosphate-buffered saline, formaldehyde-fixed, blocked with phosphate-buffered saline containing 1% bovine serum albumin and 10% goat serum, incubated with anti-PKCα (C-20) or anti-NFATC1 (mab 7A6) (both from Santa Cruz Biotechnology Inc.; Santa Cruz, Calif.) followed by secondary Cy3-, FITC- or Alexa488-labeled antibodies and confocal microscopic visualization (Bio-Rad Radiance2100).

[4] = system: HSG cells; experiment: Calcium mobilization imaging in HSG cells (Fluo-4); type: cell-based, human; conditions: for effect on lacritin-stimulated calcium mobilization: preincubation: pertussis toxin 100 ng/ml, or siRNA
Method: Cells were seeded at 1.4×10^4 HSG cells/mm^2 or 0.7×10^4 HSG cells/mm^2 on Matrigel-coated (100 μg/ml; BD Biosciences; San Diego Calif.) coverslips to respectively achieve 70-80% confluency after overnight or 48 h growth in 6-well plates containing phenol red-free Dulbecco's modified Eagle's medium with 10% fetal calf serum.
Other cells were incubated (0.7×10^4HSG cells/mm^2 overnight plating) with 100 ng/ml pertussis toxin (Calbiochem; San Diego Calif.) in phenol red-free Dulbecco's modified Eagle's medium with 10% fetal calf serum; or vehicle alone). Cells were washed with calcium-free/phenol red-free Hanks basic salt solution, 20 mM N-2-hydroxyethylpiperazine-N′-2-ethane sulfonic acid and then incubated for 1 h at room temperature with the same solution containing fluo-4 μM at 4 μM (FluoroPure grade [Molecular Probes; Eugene Oreg.] dissolved in DMSO plus 20% Pluronic F-127). Cells were washed three times for 60 min at room temperature with calcium-free/phenol red-free Hanks basic salt solution with 5 mM Ca^2+ or 5 mM EGTA. Temperature was stabilized for 5 min at 37° C. coverslips were placed on the stage of a TE-200 epifluorescent microscope (Bio-Rad Radiance2100 confocal/multiphoton system using Plan Fluor 60×NA 1.4 Oil IR objective lens [Bio-Rad, Hercules Calif.] as part of the W. M. Keck Center for Cellular Imaging, University of Virginia), subjected to a 488 nm argon laser light source with emission at 528 nm. Baseline monitoring was followed by addition of lacritin or deletion fragments in phenol red-free Hanks basic salt solution.

[5] = system: human salivary ductal (HSG) cells; experiment: 3H-thymidine uptake mitogenesis assay; type: cell-based; conditions: 10 nM; compared to intact lacritin
Method: as §1

[6] = system: caspase-9; experiment: Caspase-9 activity in human corneal epithelial cells treated with TNF-α; type: cell-based; conditions: lacritin polypeptides 10 nM
Method: FIG. 13 graphically illustrates the ability of lacritin polypeptides (10 nM) to block TNFα induced caspase-9 activity in human corneal epithelial cells. The ordinate represents relative fluorescence units. White bars indicate 6 hours and diagonally-hatched bars indicate 9 hours.
Caspase-9 activity was measured in cells treated with various combinations of TNF-α, fragments of lacritin, and the PKC inhibitor Go6976. […] The PKC-α inhibitor Go6976 and C-25 fail to block this increase of the downstream initiator caspase-9.

[7] = system: caspase-8; experiment: Caspase-8 activity in human corneal epithelial cells treated with TNF-α; type: cell-based
Method: FIG. 12 graphically illustrates the ability of lacritin polypeptides to block TNFα induced caspase-8 activity in human corneal epithelial cells. The ordinate represents relative fluorescence units. White bars indicate 1 hour and diagonally-hatched bars indicate 6 hours.
Lacritin-induced proliferation and calcium signaling was studied in the human corneal epithelial (HCE) cell line. HCE cells were grown at 37° C. in DMEM F/12 supplemented with 10% FBS and 50 μg/ml gentamicin. Each experiment was done in a dose- and time-dependent manner using TNF-α (5-20 ng/ml) and lacritin (1-10 nM). Cell viability was measured spectrophotometrically at an absorbance of 570 nm using the MTT assay. Caspase-8 activity was detected fluorometrically by measuring cleavage of the fluorogenic substrate IETD-pNA at an excitation wavelength of 405 nm. Lacritin-induced cell proliferation was studied by H3-thymidine incorporation and via fluorescence-based detection of PKC, PLC and cAMP. Calcium signaling was detected by confocal microscopy of Fluo-4 loaded cells.

Row | Molecule | effect on lacritin-dependent NFATC1 translocation [3] | effect on lacritin-dependent PKCα translocation [2] | mitogenic activity of deletion constructs [5] | other results
1 | CCCCCCCCCCCCCC(=O)O[C@@H]1[C@@H](C)[C@@]2(O)[C@@H](C=C(CO)C[C@]3(O)C(=O)C(C)=C[C@@H]23)[C@@H]2C(C)(C)[C@]12OC(C)=O [4β-phorbol 12-myristate 13-acetate, reference compound] |  |  |  | effect on PKCα phosphorylation [1]: hyperphosphorylation; PKCα translocation ([2]; 15 min after treatment): concentrated PKCα solely in the plasma membrane
2 | O=C(O)CN(CCOCCOCCN(CC(=O)O)CC(=O)O)CC(=O)O [EGTA] | non-inhibitory |  |  | 
3 | COc1ccc2c(c1)CC[C@@H]1[C@@H]2CC[C@]2(C)[C@@H](NCCCCCCN3C(=O)C=CC3=O)CC[C@@H]12 [U73122] | inhibited | inhibited |  | effect on lacritin-dependent PKCα dephosphorylation [1]: inhibited; effect on carbachol-stimulated calcium mobilization ([4]; U73122 1 μM, Go 6976 1 μM, even at 10 μM): inhibited; effect on lacritin-stimulated calcium mobilization ([4]; U73122 1 μM, Go 6976 1 μM): inhibited
4 | COc1ccc2c(c1)CC[C@@H]1[C@@H]2CC[C@]2(C)[C@@H](NCCCCCCN3C(=O)CCC3=O)CC[C@@H]12 [U73343] |  | full translocation and dephosphorylation |  | effect on lacritin-dependent PKCα dephosphorylation [1]: full translocation and dephosphorylation
5 | C[N+](C)(C)CCOC(N)=O [carbachol] |  |  |  | calcium mobilization after pertussis toxin preincubation ([4]; positive control replacing lacritin): full calcium mobilization
6 | [Gd] [gadolinium] | non-inhibitory |  |  | 
7 | C/C=C(/C)C(=O)O[C@H]1C(C)=C2[C@H]([C@@H]1OC(=O)CCCCCCC)[C@@](C)(OC(C)=O)C[C@H](OC(=O)CCC)[C@@]1(O)[C@H]2OC(=O)[C@@]1(C)O [thapsigargin] | inhibited | inhibited |  | 
8 | C-59: deletion of the 59 carboxy terminal amino acids of mature lacritin (SEQ ID NO:10) (EDASSDSTGADPAQEAGTSKPNEEISGPAEPASPPETTTTAQETSAAAVQGTAKVTSSRQ; homo sapiens) |  |  | inactive | 
9 | pertussis toxin | inhibited | inhibited |  | effect on lacritin-dependent PKCα dephosphorylation [1]: inhibited; effect on lacritin-stimulated calcium mobilization ([4]; U73122 1 μM, Go 6976 1 μM): completely inhibited
10 | C-10: deletion of the 10 carboxy terminal amino acids of mature lacritin (SEQ ID NO:10) (protein, homo sapiens) EDASSDSTGADPAQEAGTSKPNEEISGPAEPASPPETTTTAQETSAAAVQGTAKVTSSRQELNPLKSIVEKSILLTEQALAKAGKGMHGGVPGGKQFIENGSEFAQKLL |  |  | active | effect on TNF-α-induced caspase-9 activity [6]: blocked; effect on TNF-α-induced caspase-8 activity [7]: blocked
11 | C-15: deletion of the 15 carboxy terminal amino acids of mature lacritin (SEQ ID NO:10) (protein, homo sapiens) EDASSDSTGADPAQEAGTSKPNEEISGPAEPASPPETTTTAQETSAAAVQGTAKVTSSRQELNPLKSIVEKSILLTEQALAKAGKGMHGGVPGGKQFIENGSEF |  |  | diminished; also recorded: partially active | 
12 | C-20: deletion of the 20 carboxy terminal amino acids of mature lacritin (SEQ ID NO:10) (protein, homo sapiens) EDASSDSTGADPAQEAGTSKPNEEISGPAEPASPPETTTTAQETSAAAVQGTAKVTSSRQELNPLKSIVEKSILLTEQALAKAGKGMHGGVPGGKQFIE |  |  | completely abrogated activity; also recorded: inactive | 
